Ends that are not written are not given here. BA1 = not defined here

Holding throughout (format): biochemical
Test [1] has as its system protein kinase C. Nature of the test: Phosphorylation of glass-immobilised peptide array by protein kinase C (FIG. 8, Example 32). The following applies: protein kinase C 10 U/mL, ATP/γ32P-ATP, 30 min at 25° C., maleinimido-functionalised glass, PhosphorImager. Here is the method:
FIG. 8. Precisely 43 serine and/or threonine-containing peptides (potential substrate peptides for kinases) and the corresponding control peptides, each modified at the N-terminus with the dipeptide cysteinyl-β-alanine, were coupled to a maleinimido-functionalised glass surface by a Michael addition (Example 18). In the control peptides the serine and/or threonine residues were replaced by alanine, the sequence remaining otherwise the same. The application was carried out using a NanoPlotter from Gesim. The spot-to-spot distance was 1 mm and 0.8 nL of a peptide solution in 100 mM PBS buffer pH 7.8, containing 20% glycerin, was applied per spot. Here a filled circle represents a serine- or threonine-containing potential substrate peptide and an open circle stands for a control peptide. Three identical subarrays were applied to the glass surface. The numbering of the spots can be seen in FIG. 8C, the sequences of the peptides used are obtained from Example 18. After application of the peptides, the modified glass surface was first pre-incubated for 10 minutes using 10 ml of 100 μM ATP solution in 50 mM of sodium phosphate buffer pH 7.5. The modified glass surface was then covered with a second glass surface and Protein kinase C (10 U/mL) together with ATP/γ^32P-ATP mixture (100 μM/mL; 100 μCi/mL) was then inserted into the intermediate space formed thereby by means of capillary force. After incubation for 30 min at 25° C. the phosphorylation of the corresponding peptides was detected using a FUJIFILM PhosphorImager (Example 38). The spots having higher signal intensity in all three subarrays were assigned to the corresponding peptides phosphorylated by the protein kinase C. […] It is thus clear that such an assembly is suitable for characterising the substrate specificity of a kinase, such as protein kinase C, for example.
Precisely 43 serine- and/or threonine-containing peptides (potential substrate peptides for kinases) and the corresponding control peptides, each modified at the N-terminus with the dipeptide cysteinyl-β-alanine, were coupled to a maleinimido-functionalised glass surface by a Michael addition (see Example 18). The numbering of the spots can be seen from FIG. 8C and the sequences of the peptides used are obtained from Example 18. After application of the peptide, the modified glass surface was first pre-incubated using 10 mL of 100 μM ATP […] solution in 50 mM sodium phosphate buffer pH 7.5 for […] minutes. The modified glass surface was then covered with a cover glass and protein kinase C (10 U/mL) together with ATP/γ-^32P-ATP mixture (100 μM/mL; 100 μCi/mL) was incorporated in the intermediate space formed by means of capillary force. Incubation was then carried out for 30 min at 25° C. […]
(§1) After drying the glass surface the quantity of radioactive phosphate incorporated in the glass-surface-bound peptides was determined using a PhosphorImager system (FLA-3000, FUJIFILM). […]

Test [2] has as its target T1, protein kinase A (Bos taurus, UniProt P00517).
T1 construct: purchased Sigma P26452 as printed
Nature of the test: Incubation of modified glass surface (11760 spots) with protein kinase A (FIG. 6, Example 28). To be noted: bromoketone-functionalised glass, thioamide linkage, protein kinase A 10 U/mL, 30 min at 25° C. Here is the method:
FIG. 6. A glass surface modified with the peptide Leu-Arg-Arg-Ala-Ser-Leu-Gly-thioamide (see Example 24) amino acid sequence was dissolved in 200 mM sodium phosphate buffer pH 5.5 and at room temperature respectively 1 nL of this solution in an assembly of 70 rows and 168 gaps (total 11760) was applied to the bromoketone-functionalised glass surfaces (Example 10) using a NanoPlotter from Gesim. The spot-to-spot distance was 0.3 mm. The glass surfaces thus treated were then subjected to microwave treatment for 2 min and then incubated for 3 hours at room temperature. Pre-incubation was then carried out for 10 minutes using 10 ml of 100 μM ATP solution in 50 mM of sodium phosphate buffer pH 7.5. […] After incubation for 30 min at 25° C. the phosphorylation of the corresponding peptides was detected using a FUJIFILM PhosphorImager. […] It is furthermore clear that the resolution of the PhosphorImager used here is sufficient to analyse more than 11000 measurement points per biochip. […]
After drying the glass surface the quantity of radioactive phosphate incorporated in the glass-surface-bound peptides was determined using a PhosphorImager system (FLA-3000, FUJIFILM) (see FIG. 6).

In test [3] the target is T1, protein kinase A. Nature of the test: Phosphorylation of glass-immobilised peptide array by protein kinase A (FIG. 9, Example 33). To be noted: protein kinase A 10 U/mL, ATP/γ32P-ATP, 30 min at 25° C., maleinimido-functionalised glass, PhosphorImager. As to the method: FIG. 9. Precisely 43 serine and/or threonine-containing peptides (potential substrate peptides for kinases) and the corresponding control peptides, each modified at the N-terminus with the dipeptide cysteinyl-β-alanine, were coupled to a maleinimido-functionalised glass surface by a Michael addition (Example 18). In the control peptides the serine and/or threonine residues were replaced by alanine, the sequence remaining otherwise the same. The application was carried out using a NanoPlotter from Gesim. The spot-to-spot distance was 1 mm and 0.8 nL of a peptide solution in 100 mM PBS buffer pH 7.8, containing 20% glycerin, was applied per spot. Here a filled circle represents a serine- or threonine-containing potential substrate peptide and an open circle stands for a control peptide. Three identical subarrays were applied to the glass surface. The numbering of the spots can be seen in FIG. 9C, the sequences of the peptides used are obtained from Example 18. […] After incubation for 30 min at 25° C. the phosphorylation of the corresponding peptides was detected using a FUJIFILM PhosphorImager (Example 39). […]
as §1

For the substance “Cys-BA1-Ala-Lys-Arg-Arg-Arg-Leu-Ser-Ser-Leu-Arg-Ala-NH2 ({Cys-BA1}-AKRRRLSSLRA-NH2; reading uncertain; also: printed as Cys-BA1-Ala-Lys-Arg-Arg-Arg-Leu-Ser-Ser-Leu-Arg-Ala-NH2) [compound 3]”, the “recognised and phosphorylated by protein kinase C on the modified glass surface” value in test [1] was “recognised and phosphorylated”. For “Cys-BA1-Lys-Lys-Arg-Phe-Ser-Phe-Lys-Lys-Ser-Phe-Lys-Leu-NH2 ({Cys-BA1}-KKRFSFKKSFKL-NH2; reading uncertain; also: printed as Cys-BA1-Lys-Lys-Arg-Phe-Ser-Phe-Lys-Lys-Ser-Phe-Lys-Leu-NH2) [compound 41]”, the “recognised and phosphorylated by protein kinase C on the modified glass surface” value in test [1] is “recognised and phosphorylated”.

Regarding “Cys-BA1-Gln-Lys-Arg-Pro-Ser-Gln-Arg-Ser-Lys-Tyr-Leu-NH2 ({Cys-BA1}-QKRPSQRSKYL-NH2; reading uncertain; also: printed as Cys-BA1-Gln-Lys-Arg-Pro-Ser-Gln-Arg-Ser-Lys-Tyr-Leu-NH2) [compound 27]”, the “recognised and phosphorylated by protein kinase C on the modified glass surface” value in test [1] was “recognised and phosphorylated”. Regarding “Cys-BA1-Pro-Leu-Ser-Arg-Thr-Leu-Ser-Val-Ala-Ala-Lys-Lys-NH2 ({Cys-BA1}-PLSRTLSVAAKK-NH2; reading uncertain; also: printed as Cys-BA1-Pro-Leu-Ser-Arg-Thr-Leu-Ser-Val-Ala-Ala-Lys-Lys-NH2) [compound 23]”, the “recognised and phosphorylated by protein kinase C on the modified glass surface” value in test [1] is “recognised and phosphorylated”. Consider “Leu-Arg-Arg-Ala-Ser-Leu-Gly-thioamide (LRRASLG-thioamide)”, for which the “linking of the immobilised kinase substrate tolerated by protein kinase A” value in test [2] was “tolerated by the protein kinase A”.

Turning to “Cys-BA1-Pro-Lys-Asp-Pro-Ser-Gln-Arg-Arg-Arg-NH2 ({Cys-BA1}-PKDPSQRRR-NH2; reading uncertain; also: printed as Cys-BA1-Pro-Lys-Asp-Pro-Ser-Gln-Arg-Arg-Arg-NH2) [compound 43]”, the “recognised and phosphorylated by protein kinase C on the modified glass surface” value in test [1] was “recognised and phosphorylated”. Turning to “Arg-Arg-Ile-Ser-Lys-Asp-Asn-Pro-Asp-Tyr-Gln-Gln-Asp-BA1-Cys-NH2 (RRISKDNPDYQQD-{BA1-Cys-NH2}; reading uncertain; also: printed as Arg-Arg-Ile-Ser-Lys-Asp-Asn-Pro-Asp-Tyr-Gln-Gln-Asp-BA1-Cys-NH2) [peptide 83]”, the “recognised and phosphorylated by protein kinase A on the modified glass surface” value in test [3] is recorded as “not phosphorylated”.

Values taken from patent US8029979B2, “Method for determining the substrate specificity of an enzyme” (JPT Peptide Technologies GmbH, priority 2001, dated 2011).
